From paper PMC5418348, “Identification of a Novel Allosteric Inhibitory Site on Tryptophan Hydroxylase 1 Enabling Unprecedented Selectivity Over all Related Hydroxylases” (Frontiers in Pharmacology, 2017)
“Also recorded” adds a separate entry of the source. Like-named read-outs stand apart in the source and are kept apart here.

Columns and labels:
[1] = tested on: BON cells; assay: LDH cell toxicity assay in BON cells; type: cell-based, human; conditions: Figure 5B
Protocol: (§1) 5-HT newly synthesized through TPH activity was assessed both in vitro and in vivo by addition of deuterium labeled substrate (deuterated tryptophan – TRP-d5) and subsequently generated deuterium labeled product (deuterated serotonin – 5HT-d4) (Figure 6A). BON (human pancreatic carcinoid) cell line was a gift from Dr. Courtney M. Townsend (University of Texas, Galveston, TX, USA) and cultured as previously described ([Tran et al., 2004]). Cells were seeded overnight in 96-well plates at 1.2 × 10^5 cells per well in 200 μL growth media containing 1% FBS, and incubated at 37°C, 5% CO2. After 24 h, cell media was exchanged for […] serum-free media. All reagents added to the cells in subsequent steps were diluted in serum-free media. Cells were treated with 25 μL of either compound or DMSO vehicle (1 % v/v) for 15 min at 37°C, 5% CO2 and then treated with 25 μL 196 mM deuterated-tryptophan (Isotec, UK) for a further 2 h at 37°C, 5% CO2. BON cell lysates were then prepared by removal of all media with subsequent addition of […] HTAB. These lysates were further analyzed for D4-5-HT content by LCMS. Cell toxicity was also assessed in BON cells using a standard lactate dehydrogenase (LDH) assay according to instructions.

[2] = tested on: TPH1; set-up: method as in Liu et al., 2008; conditions: ref Liu et al., 2008; read-out: TPH1 activity IC50 (literature); cited from earlier work
[3] = tested on: BON (human pancreatic carcinoid) cell line; assay: BON cell assay of D4-5-HT production from deuterated tryptophan; type: cell-based; conditions: BON cells; for IC50: read-out: IC50 inhibition of D4-5-HT production
Protocol: as §1

[4] = target: T1, Human TPH-1 (Homo sapiens, UniProt P17752); assay: In vitro human TPH-1 enzyme activity assay (fluorescence); type: biochemical; conditions: literature ref Liu et al., 2008
T1 sequence (P17752 1-444): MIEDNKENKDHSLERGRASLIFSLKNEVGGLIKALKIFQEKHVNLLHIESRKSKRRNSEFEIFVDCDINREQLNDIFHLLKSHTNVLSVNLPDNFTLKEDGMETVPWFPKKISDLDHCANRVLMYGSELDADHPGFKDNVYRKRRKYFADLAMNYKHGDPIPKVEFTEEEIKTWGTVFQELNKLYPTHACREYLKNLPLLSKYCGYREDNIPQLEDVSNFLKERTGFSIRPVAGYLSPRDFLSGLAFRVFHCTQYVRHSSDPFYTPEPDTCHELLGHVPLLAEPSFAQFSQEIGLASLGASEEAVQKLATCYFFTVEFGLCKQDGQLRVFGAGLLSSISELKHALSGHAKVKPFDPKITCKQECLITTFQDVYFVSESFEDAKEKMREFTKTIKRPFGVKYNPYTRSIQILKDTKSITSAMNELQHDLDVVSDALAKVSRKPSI
Protocol: Human TPH-1 and Human TPH-2 enzyme assays were carried out at room temperature with atmosphere oxygen in a volume of 25 μL. A base buffer of 40 mM HEPES pH 7.0, 200 mM ammonium sulfate was made and stored at 4°C. On the day of assay, final concentrations of 10 μM iron ammonium sulfate, 0.1 mg mL^-1 BSA, 25 μg mL^-1 catalase, and 0.04% Chaps were added and designated as enzyme buffer. Substrate buffer was made the same way but for the addition of a final concentration of 10 mM DTT. Enzymes were diluted as follows: 1.25x = 12.5 nM TPH1 (Final = 10 nM) or 1.25x = 37.5 nM TPH2 (Final = 30 nM) in enzyme buffer. Substrates were diluted as follows: 5x = 200 μM (6R)-5,6,7,8-Tetrahydrobiopterin dihydrochloride (BH4) (Final = 40 μM) and 5x = 100 μM Tryptophan (Final = 20 μM) in substrate buffer. Compounds were serially diluted 1:1 in DMSO to 50x = 500 μM (Final = 10 μM). Assays were performed in GNF Custom Greiner Black 384-well plates. Compounds were added at 0.5 μL per well. Enzymes were added at 20 μL per well. Compounds and enzymes were pre-incubated 15 min at room temperature. Substrates were added at 5 μL per well to initiate the reaction. The plates were covered and incubated at room temperature: 30 min for TPH1 and 60 min for TPH2. The reactions were quenched with the addition of 25 μL 30% sulfuric acid.

[5] = target: T2, TPH1 (104–394) (Homo sapiens, UniProt P17752); assay: Biacore surface plasma resonance binding / competition experiments; conditions: SPR, previously estimated, data not shown; read-out: KD toward TPH1
T2 construct: His6 (N, cleaved yes); made in house; host or cells: Escherichia coli BL21 Rosetta (DE3)
Protocol: Biosensor experiments were performed on a Biacore T100 instrument (GE Healthcare). Biotinylation and capture of TPH1 was performed by adding a volume of freshly prepared EZ-link solution (dissolved in water) to an aliquot of TPH1(104–394) in a 2:1 molar ratio and incubated on ice. After 30 min of incubation, the reaction was stopped by the addition of 100 mM of Tris pH7.5. Unreacted biotin was removed by passing the solution over a fast desalting column (Thermo scientific #89849, equilibrated with PBS, 0.5 mM TCEP) three times. Biotinylated protein was aliquoted and kept at -80°C until use. Biotinylated TPH1 (104–394) was immobilized at 22°C on a SA chip surface (GE Healthcare) equilibrated with 10 mM Hepes, 150 mM NaCl, 1 mM TCEP, 0.05% Tween20, 5% glycerol, pH7.6. Approximately 3200RU were immobilized using this procedure. A streptavidin surface served as the reference.
Binding experiments were performed at 20°C using 10 mM Hepes, 150 mM NaCl, 1 mM TCEP, 0.05% Tween20, 5% glycerol, pH7.6, 2% DMSO as running buffer. […] Using a flow rate of […], samples were injected for 120 s and dissociation was monitored for 240 s. […]

In the case of `N[C@@H](Cc1ccc(Cl)cc1)C(=O)O` (racemic) [pCPA, p-chlorophenylalanine], the LDH tox [1] is listed as over 30 µM, the IC50 [2] is listed as 250 µM and the “IC50 inhibition of D4-5-HT production” value [3] is listed as “could not be established; also recorded: not measurable”. The IC50 ([3]; Figure 5B, 15 min compound then 2 h deuterated tryptophan, n = 3) was over 30 µM and the “difference between literature TPH1 IC50 and the values reported here” value [4] was “approximately 50 fold”.

`C[C@H](O)[C@H](O)C1=Nc2c(nc(N)[nH]c2=O)NC1` [BH2] gave a Kd [5] of 11 µM.

Compound `N[C@@H](Cc1c[nH]c2ccccc12)C(=O)O` [L-Trp] has a Kd [5] of 56 µM.

For `Nc1nc(OC(c2ccc(-c3cccc(F)c3)cc2)C(F)(F)F)cc(-c2ccc(C[C@H](N)C(=O)O)cc2)n1` (stereo partly shown) [LP533401], the LDH tox [1] is given as over 30 µM, the IC50 [2] is given as 0.7 µM and the IC50 [3] is given as 12.4 µM.
